Measured values: ChEMBL document CHEMBL4308867, “Discovery of naldemedine: A potent and orally available opioid receptor antagonist for treatment of opioid-induced adverse effects” (Bioorg Med Chem Lett, 2019)
pKi: −log10 of the molar value.

Key:
[1] = Stability in rat microsomes assessed as parent compound remaining at 0.5 uM measured after 0.5 hrs; assay type: ADME, Microsome; conditions: read-out: Stability
[2] = Chemical stability of the compound; assay type: physicochemical
[3] = Stability in human microsomes assessed as parent compound remaining at 0.5 uM measured after 0.5 hrs; assay type: ADME, Microsome; conditions: read-out: Stability
[4] = biological target: T1, Delta-type opioid receptor (Homo sapiens, UniProt P41143); assay: Displacement of [3H]-DADLE from recombinant human delta-opioid receptor expressed in HEK293 cells; assay type: cell-based
[5] = Total clearance in rat at 1 mg/kg, po administered as cassette dose; assay type: ADME, organism-based; conditions: in vivo
[6] = Cmax in rat brain at 1 mg/kg, po administered as cassette dose; assay type: ADME, organism-based; set-up: dose 1 mg/kg, route oral
[7] = Oral bioavailability in rat at 1 mg/kg administered as cassette dose; assay type: ADME, organism-based; conditions: in vivo
[8] = biological target: T2, Mu-type opioid receptor (Homo sapiens, UniProt P35372); assay: Displacement of [3H]-DAMGO from recombinant human mu-opioid receptor expressed in CHOK1 cells; assay type: cell-based
[9] = Brain to blood partition coefficient, Kp of the compound in rat at 1 mg/kg, po administered as cassette dose; assay type: ADME, organism-based
[10] = Stability in plasma (unknown origin) assessed as parent compound remaining after 24 hrs; assay type: ADME, cell-free; conditions: read-out: Stability
[11] = biological target: T1, Delta-type opioid receptor; assay: Antagonist activity at delta-opioid receptor (unknown origin) by [35S]-GTPgammaS binding assay; assay type: functional
[12] = test system: Rattus norvegicus; assay: Selectivity ratio of ED50 for inhibition of morphine-induced analgesia in po dosed rat to ED50 for inhibition of morphine-induced constipation in po dosed rat; assay type: functional
[13] = test system: Rattus norvegicus; assay: Antianalgesic activity in po dosed rat assessed as inhibition of morphine-induced analgesia by tail-flick test; assay type: functional
[14] = species: Rattus norvegicus; assay: […]; assay type: functional; conditions: po
[15] = test system: Mustela putorius furo; assay: In vivo antagonist activity at mu-opioid receptor in po dosed ferret assessed as inhibition of morphine-induced emesis/vomiting; assay type: functional
[16] = Selectivity ratio of ED50 for inhibition of morphine-induced analgesia in po dosed rat to ED50 for inhibition of morphine-induced emesis/vomiting in po dosed ferret; assay type: functional
[17] = biological target: T2, Mu-type opioid receptor; assay: Antagonist activity at mu-opioid receptor (unknown origin) by [35S]-GTPgammaS binding assay; assay type: functional
[18] = test system: Rattus norvegicus; assay: In vivo antagonist activity at […] in sc dosed rat assessed as inhibition of morphine-induced constipation; assay type: functional
[19] = test system: Mustela putorius furo; assay: In vivo antagonist activity at mu-opioid receptor in sc dosed ferret assessed as inhibition of morphine-induced emesis/vomiting; assay type: functional
[20] = Drug metabolism assessed as formation of 14-O-acyl form and 7-acyl form mixture

T2 sequence (P35372 whole entry): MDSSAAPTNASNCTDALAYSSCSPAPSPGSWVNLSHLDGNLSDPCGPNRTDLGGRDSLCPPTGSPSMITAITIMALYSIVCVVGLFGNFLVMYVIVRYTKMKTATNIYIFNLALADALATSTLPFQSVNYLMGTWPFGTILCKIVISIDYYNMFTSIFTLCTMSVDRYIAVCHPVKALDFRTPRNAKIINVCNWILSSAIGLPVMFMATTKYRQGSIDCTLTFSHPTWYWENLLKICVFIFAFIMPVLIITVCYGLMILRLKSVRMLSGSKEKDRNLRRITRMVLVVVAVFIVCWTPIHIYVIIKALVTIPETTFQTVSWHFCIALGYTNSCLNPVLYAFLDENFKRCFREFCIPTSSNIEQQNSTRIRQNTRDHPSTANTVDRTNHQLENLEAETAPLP
T1 sequence (P41143 whole entry): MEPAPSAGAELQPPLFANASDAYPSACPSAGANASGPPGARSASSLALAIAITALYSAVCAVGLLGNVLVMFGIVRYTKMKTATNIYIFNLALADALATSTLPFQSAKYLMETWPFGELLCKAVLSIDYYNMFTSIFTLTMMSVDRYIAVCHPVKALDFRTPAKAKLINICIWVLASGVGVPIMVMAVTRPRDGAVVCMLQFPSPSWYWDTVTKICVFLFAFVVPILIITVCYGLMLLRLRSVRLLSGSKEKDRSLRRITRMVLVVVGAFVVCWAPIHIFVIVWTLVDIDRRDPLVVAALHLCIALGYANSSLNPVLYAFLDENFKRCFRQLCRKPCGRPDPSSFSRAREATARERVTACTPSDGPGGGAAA

Structure (SMILES)	remaining at 0.5 h, 0.5 µM [1] [%]	Stability [2]	remaining at 0.5 h, 0.5 µM [3] [%]	pKi [4]	CL/F [5] [mL/min/kg]	Cmax [6] [ng/mL]	bioavailability [7] [%]	pKi [8]	Kp [9]	remaining at 24 h [10] [%]	Ke [11] [nM]	Ratio ED50 [12]	ED50 [13] [mg/kg]	ED50 [14] [mg/kg]	ED50 [15] [mg/kg]	Ratio ED50 [16]	Ke [17] [nM]	ED50 [18] [mg/kg]	ED50 [19] [mg/kg]	Drug metabolism [20]
N#Cc1ccc(NC(=O)C2=C(O)[C@@H]3Oc4c(O)ccc5c4[C@@]34CCN(CC3CC3)[C@H](C5)[C@]4(O)C2)cc1	92	Stable	103	7.95	8.5	1.3	12	8.29	0.03	> 80										
COC(=O)C(C)(C)NC(=O)C1=C(O)[C@@H]2Oc3c(O)ccc4c3[C@@]23CCN(CC2CC2)[C@H](C4)[C@]3(O)C1	103	Stable	101	8.40	25	5.1	68	7.78	0.08	> 80										
Cc1noc(C(C)(C)NC(=O)C2=C(O)[C@@H]3Oc4c(O)ccc5c4[C@@]34CCN(CC3CC3)[C@H](C5)[C@]4(O)C2)n1	99	Stable	92	8.24	29	0.29	11	8.14	0.04	> 80										
O=C(Nc1ccccc1)C1=C(O)[C@@H]2Oc3c(O)ccc4c3[C@@]23CCN(CC2CC2)[C@H](C4)[C@]3(O)C1	78	Stable	89	7.70 to 8.17	36		57	8.39 to 9.00		> 80	3.6	17	16.5	0.99	0.04	413	3.2			
CC(C)NC(=O)C1=C(O)[C@@H]2Oc3c(O)ccc4c3[C@@]23CCN(CC2CC2)[C@H](C4)[C@]3(O)C1	88	Stable	95	8.13 to 8.70	41		50	8.28 to 8.47		> 80	3.8	19	10.7	0.57	0.04	266	6.2			
O=C(Nc1ccccn1)C1=C(O)[C@@H]2Oc3c(O)ccc4c3[C@@]23CCN(CC2CC2)[C@H](C4)[C@]3(O)C1	97	Stable	98	8.17	25	5.6	55	8.01	0.05	> 80										
C[C@H](CO)NC(=O)C1=C(O)[C@@H]2Oc3c(O)ccc4c3[C@@]23CCN(CC2CC2)[C@H](C4)[C@]3(O)C1		Stable		7.74	27	0.21	3.4	7.71	0.05	> 80										
O=C(O)c1ccc2c3c([nH]c2c1)[C@@H]1Oc2c(O)ccc4c2[C@@]12CCN(CC1CC1)[C@H](C4)[C@]2(O)C3	97		98	9.21	71.8	0.023	0.1	7.74	0.03											
CC(C)(NC(=O)C1=C(O)[C@@H]2Oc3c(O)ccc4c3[C@@]23CCN(CC2CC2)[C@H](C4)[C@]3(O)C1)c1nc(-c2ccccc2)no1 [NALDEMEDINE]	76	Stable	73	9.04	20	1.3	29	8.95 to 8.96	0.03	> 80	0.37	>500	> 30	0.03	0.03	>1000	0.05			
C[N@+]1(CC2CC2)CC[C@]23c4c5ccc(O)c4O[C@H]2C(=O)CC[C@@]3(O)[C@H]1C5.[Br-] [METHYLNALTREXONE BROMIDE]											1080						56	4.5	0.69	
CCC(=O)C1=C(O)[C@@H]2Oc3c(O)ccc4c3[C@@]23CCN(CC2CC2)[C@H](C4)[C@]3(O)C1	46		85	8.00	313	6.5	6.4	8.85	1.7	< 20										Metabolite detected
O=C(NCc1ccccc1)C1=C(O)[C@@H]2Oc3c(O)ccc4c3[C@@]23CCN(CC2CC2)[C@H](C4)[C@]3(O)C1	14	Stable	94	7.80	61	12	46	8.96	0.17	> 80										
O=C(O)c1ccc2c3c([nH]c2c1Cl)[C@@H]1Oc2c(O)ccc4c2[C@@]12CCN(CC1CC1)[C@H](C4)[C@]2(O)C3	100		97	9.00	18.1	0.032	0.2	7.72	0.03											
O=C(C1=C(O)[C@@H]2Oc3c(O)ccc4c3[C@@]23CCN(CC2CC2)[C@H](C4)[C@]3(O)C1)N1CCCC1	24	Stable	99	8.13	102	3	18	8.40	0.22	> 80										
O=C(Nc1ccc2cc[nH]c2c1)C1=C(O)[C@@H]2Oc3c(O)ccc4c3[C@@]23CCN(CC2CC2)[C@H](C4)[C@]3(O)C1	86	Stable	93	7.72	28	0.56	13	8.62	0.04	> 80										
Cc1nc(N)nc2c1C[C@@]1(O)[C@H]3Cc4ccc(O)c5c4[C@@]1(CCN3CC1CC1)[C@H]2O5	58		92	8.68	220	4.6	42.5	8.07	0.31											
CC(C)(NC(=O)C1=C(O)[C@@H]2Oc3c(O)ccc4c3[C@@]23CCN(CC2CC2)[C@H](C4)[C@]3(O)C1)C(=O)O		Stable		7.93	28	0.055	0.52	7.34	0.04	> 80										
COC(=O)C1(NC(=O)C2=C(O)[C@@H]3Oc4c(O)ccc5c4[C@@]34CCN(CC3CC3)[C@H](C5)[C@]4(O)C2)CC1	103	Stable	100	8.01	30	1.3	11	8.80	0.06	> 80	7.6	>175	> 100	0.57	0.026	>3846	4.1			
CC(C)(NC(=O)C1=C(O)[C@@H]2Oc3c(O)ccc4c3[C@@]23CCN(CC2CC2)[C@H](C4)[C@]3(O)C1)C(=O)NS(C)(=O)=O	99	Stable	104	8.26	15	0.018	0.77	7.03	0.01	> 80										
Cc1n[nH]c2c1C[C@@]1(O)[C@H]3Cc4ccc(O)c5c4[C@@]1(CCN3CC1CC1)[C@H]2O5	81		98	8.92	199	2.2	26.9	7.62	0.25											
CC(=O)C1=C(O)[C@@H]2Oc3c(O)ccc4c3[C@@]23CCN(CC2CC2)[C@H](C4)[C@]3(O)C1	80		95	7.51	233	5.8	4	9.02	1.1	< 20										Metabolite detected
